Experimental data: patent US4616087A, “2,5-bis alkyl sulfonyl and 2,5-bis alkyl thio substituted-pyridines” (The Dow Chemical Company, priority 1982, dated 1986)

System: rhinovirus type 1A (RV-1A), rhinovirus type 2 (RV-2) or Coxsackie A21 virus (Cox A21)
Experiment: Tissue Culture testing, antiviral activity (virus not specified)
Type: cell-based
Settings: HeLa cells; qualitative
Experimental: Monolayered HeLa cells in 16 millimeter (mm) tissue culture dishes were treated with 1 ml of culture medium (Eagles medium supplemented with fetal calf serum) containing subject compound at an appropriate concentration or containing no compound at all. Culture media such as those described herein are more fully described in standard texts, as for example, Kuchler's Biochemical Methods in Cell Culture and Virology, Dowden, Hutchinson and Ross, Inc., Stroudsberg, PA (1977). Following treatment, cells were challenged with 0.05 ml of rhinovirus type 1A (RV-1A), rhinovirus type 2 (RV-2) or Coxsackie A21 virus (Cox A21) in culture medium. Some of the compounds were also tested against rhinovirus type 5 (RV-5), rhinovirus type 8 (RV-8) or rhinovirus type 64 (RV-64). Cell controls received no viruses.

## CC(=O)c1ccc(Oc2ccc(S(=O)(=O)C(C)C)cn2)cc1 [1-(4-((5-((1-methylethyl)sulfonyl)-2-pyridinyl)oxy)phenyl)ethanone]
  antiviral activity in the Tissue Culture testing: exhibiting antiviral activity

## CC(=O)c1ccc(Oc2ccc(S(C)(=O)=O)cn2)cc1 [1-(4-((5-(methylsulfonyl)-2-pyridinyl)oxy)phenyl)ethanone]
  antiviral activity in the Tissue Culture testing: exhibiting antiviral activity

## CCS(=O)(=O)c1cccnc1Oc1ccc(Cl)c(Cl)c1 [2-(3,4-dichlorophenoxy)-3-(ethylsulfonyl)pyridine]
  antiviral activity in the Tissue Culture testing: exhibiting antiviral activity

## O=S(=O)(Cc1ccccc1)c1ccc(Oc2ccc(Cl)c(Cl)c2)nc1 [2-(3,4-dichlorophenoxy)-5-((phenylmethyl)sulfonyl)pyridine]
  antiviral activity in the Tissue Culture testing: exhibiting antiviral activity

## O=S(=O)(c1ccc(Oc2ccc(Cl)c(Cl)c2)nc1)C1CCCCC1 [2-(3,4-dichlorophenoxy)-5-(cyclohexylsulfonyl)pyridine]
  antiviral activity in the Tissue Culture testing: exhibiting antiviral activity

## CCS(=O)(=O)c1ccc(Oc2ccc(Cl)c(Cl)c2)nc1 [2-(3,4-dichlorophenoxy)-5-(ethylsulfonyl)pyridine]
  antiviral activity in the Tissue Culture testing: exhibiting antiviral activity

## CS(=O)(=O)c1ccc(Oc2ccc(Cl)c(Cl)c2)nc1 [2-(3,4-dichlorophenoxy)-5-(methylsulfonyl)pyridine]
  antiviral activity in the Tissue Culture testing: exhibiting antiviral activity

## CCCCCCS(=O)(=O)c1ccc(Oc2ccc(Cl)c(Cl)c2)nc1 [2-(3,4-dichlorophenoxy)-5-(n-hexylsulfonyl)pyridine]
  antiviral activity in the Tissue Culture testing: exhibiting antiviral activity

## CS(=O)(=O)c1ccc(Oc2cccc(Br)c2)nc1 [2-(3-bromophenoxy)-5-(methylsulfonyl)pyridine]
  antiviral activity in the Tissue Culture testing: exhibiting antiviral activity

## CC(C)(C)c1ccc(Oc2ccc(S(C)(=O)=O)cn2)cc1 [2-(4-(1,1-dimethylethyl)phenoxy)-5-(methylsulfonyl)pyridine]
  antiviral activity in the Tissue Culture testing: exhibiting antiviral activity

## CSc1ccc(Oc2ccc(S(C)(=O)=O)cn2)cc1 [2-(4-(methylthio)phenoxy)-5-(methylsulfonyl)pyridine]
  antiviral activity in the Tissue Culture testing: exhibiting antiviral activity

## CC(C)S(=O)(=O)c1ccc(Oc2ccc(Br)cc2)nc1 [2-(4-bromophenoxy)-5-((1-methylethyl)sulfonyl)pyridine]
  antiviral activity in the Tissue Culture testing: exhibiting antiviral activity

## O=S(=O)(Cc1ccccc1)c1ccc(Oc2ccc(Br)cc2)nc1 [2-(4-bromophenoxy)-5-((phenylmethyl)sulfonyl)pyridine]
  antiviral activity in the Tissue Culture testing: exhibiting antiviral activity

## O=S(=O)(c1ccc(Oc2ccc(Br)cc2)nc1)C1CCCCC1 [2-(4-bromophenoxy)-5-(cyclohexylsulfonyl)pyridine]
  antiviral activity in the Tissue Culture testing: exhibiting antiviral activity

## CS(=O)(=O)c1ccc(Oc2ccc(Br)cc2)nc1 [2-(4-bromophenoxy)-5-(methylsulfonyl)pyridine]
  antiviral activity in the Tissue Culture testing: exhibiting antiviral activity

## O=S(=O)(c1ccccc1)c1ccc(Oc2ccc(Br)cc2)nc1 [2-(4-bromophenoxy)-5-(phenylsulfonyl)pyridine]
  antiviral activity in the Tissue Culture testing: exhibiting antiviral activity

## CCS(=O)(=O)c1ccc(Oc2ccc(Cl)cc2)nc1 [2-(4-chlorophenoxy)-5-(ethylsulfonyl)pyridine]
  antiviral activity in the Tissue Culture testing: exhibiting antiviral activity

## CS(=O)(=O)c1ccc(Oc2ccc(Cl)cc2)nc1 [2-(4-chlorophenoxy)-5-(methylsulfonyl)pyridine]
  antiviral activity in the Tissue Culture testing: exhibiting antiviral activity

## CS(=O)(=O)c1ccc(Oc2cccc(C#N)c2)nc1 [3-((5-(methylsulfonyl)-2-pyridinyl)oxy)benzonitrile]
  antiviral activity in the Tissue Culture testing: exhibiting antiviral activity

## CS(=O)(=O)c1ccc(Oc2ccc(C#N)cc2)nc1 [4-((5-(methylsulfonyl)-2-pyridinyl)oxy)benzonitrile]
  antiviral activity in the Tissue Culture testing: exhibiting antiviral activity

## CCS(=O)(=O)c1ccc(Oc2cc(Cl)c(Cl)cc2Cl)nc1 [5-(ethylsulfonyl)-2-(2,4,5-trichlorophenoxy)pyridine]
  antiviral activity in the Tissue Culture testing: exhibiting antiviral activity

## CCS(=O)(=O)c1ccc(Oc2ccc(Oc3ccccc3)cc2)nc1 [5-(ethylsulfonyl)-2-(4-phenoxyphenoxy)pyridine]
  antiviral activity in the Tissue Culture testing: exhibiting antiviral activity

## CS(=O)(=O)c1ccc(Oc2ccc(Oc3ccccc3)cc2)nc1 [5-(methylsulfonyl)-2-(4-phenoxyphenoxy)pyridine]
  antiviral activity in the Tissue Culture testing: exhibiting antiviral activity

## CS(=O)(=O)c1cccnc1Oc1ccc(C(=O)c2ccccc2)cc1 [(4-((3-(methylsulfonyl)-2-pyridinyl)oxy)phenyl)phenylmethanone]
  antiviral activity in the Tissue Culture testing: exhibiting antiviral activity

## CC(C)S(=O)(=O)c1ccc(Oc2ccc(C(=O)c3ccccc3)cc2)nc1 [(4-((5-((1-methylethyl)sulfonyl)-2-pyridinyl)oxy)phenyl)phenylmethanone]
  antiviral activity in the Tissue Culture testing: exhibiting antiviral activity

## O=C(c1ccccc1)c1ccc(Oc2ccc(S(=O)(=O)C3CCCCC3)cn2)cc1 [(4-((5-(cyclohexylsulfonyl)-2-pyridinyl)oxy)phenyl)phenylmethanone]
  antiviral activity in the Tissue Culture testing: exhibiting antiviral activity

## CCS(=O)(=O)c1ccc(Oc2ccc(C(=O)c3ccccc3)cc2)nc1 [(4-((5-(ethylsulfonyl)-2-pyidinyl)oxy)phenyl)phenylmethanone]
  antiviral activity in the Tissue Culture testing: exhibiting antiviral activity

## CS(=O)(=O)c1ccc(Oc2ccc(C(=O)c3ccccc3)cc2)nc1 [(4-((5-(methylsulfonyl)-2-pyridinyl)oxy)phenyl)phenylmethanone]
  antiviral activity in the Tissue Culture testing: exhibiting antiviral activity

## CCCCCCS(=O)(=O)c1ccc(Oc2ccc(C(=O)c3ccccc3)cc2)nc1 [(4-((5-(n-hexylsulfonyl)-2-pyridinyl)oxy)phenyl)phenylmethanone]
  antiviral activity in the Tissue Culture testing: exhibiting antiviral activity
